Measured values published in patent publication US9834542B2, “LXR modulators” (BRISTOL-MYERS SQUIBB COMPANY, priority 2013, dated 2017).

Target: T1, LXRβ (Homo sapiens, UniProt P55055)
T1 construct: Co-transfection expression plasmids, comprising full-length LXRα (pCMX-h LXRα[…] or LXRβ (pCMX-hLXRβ)); expressed in transfected cells; host or cells: CV-1 African Green Monkey Kidney Cells
T1 sequence (P55055 1-460): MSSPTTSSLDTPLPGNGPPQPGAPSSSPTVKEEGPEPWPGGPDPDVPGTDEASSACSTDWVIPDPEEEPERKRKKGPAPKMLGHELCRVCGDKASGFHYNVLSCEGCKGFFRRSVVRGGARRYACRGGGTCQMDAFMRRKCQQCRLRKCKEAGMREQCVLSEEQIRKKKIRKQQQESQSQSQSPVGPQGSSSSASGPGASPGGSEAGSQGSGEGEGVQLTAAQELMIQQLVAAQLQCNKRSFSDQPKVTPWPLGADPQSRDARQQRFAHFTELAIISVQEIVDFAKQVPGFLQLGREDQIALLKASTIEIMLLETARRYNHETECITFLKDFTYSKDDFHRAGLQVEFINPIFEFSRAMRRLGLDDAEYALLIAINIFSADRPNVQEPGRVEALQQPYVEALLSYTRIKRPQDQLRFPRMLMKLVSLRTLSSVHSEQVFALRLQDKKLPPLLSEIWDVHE
T1 sequence (P19793 1-462 partner): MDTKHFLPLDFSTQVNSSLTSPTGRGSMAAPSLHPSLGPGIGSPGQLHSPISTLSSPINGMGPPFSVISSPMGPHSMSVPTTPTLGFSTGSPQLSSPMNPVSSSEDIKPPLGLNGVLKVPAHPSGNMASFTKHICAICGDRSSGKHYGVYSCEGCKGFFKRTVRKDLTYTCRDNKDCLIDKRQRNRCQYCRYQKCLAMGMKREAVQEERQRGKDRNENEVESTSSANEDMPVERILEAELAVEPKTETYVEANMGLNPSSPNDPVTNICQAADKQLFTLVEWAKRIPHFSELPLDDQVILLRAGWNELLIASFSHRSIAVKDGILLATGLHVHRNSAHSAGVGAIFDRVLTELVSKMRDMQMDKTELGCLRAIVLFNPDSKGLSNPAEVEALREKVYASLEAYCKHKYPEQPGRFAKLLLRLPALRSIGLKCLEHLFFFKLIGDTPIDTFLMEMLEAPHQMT
Assay: Co-transfection assay (LXRE luciferase reporter), LXRβ
Assay type: cell-based
Settings: for EC50: CV-1 cells transfected with pCMX-hLXRβ and LXREx1-Tk-Luciferase, 20 hours incubation; for Emax: LXRβ co-transfection, relative to high control 1-(2,4-difluorobenzyl)-2-oxo-6-(4-phenoxyphenyl)-4-(trifluoromethyl)-1,2-dihydropyridine-3-carbonitrile, read-out: % Efficacy
Method in brief: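 CV-1 cells transiently co-transfected with full-length human LXRβ expression plasmid, LXREx1-Tk-luciferase reporter and β-galactosidase control, then exposed to compound for 20 h at 37 °C. Luciferase luminescence read; EC50 from 11-point, ½-log dose–response fit, efficacy relative to high-control agonist maximum.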

Row | Compound | EC50 [µM] | Emax [%]
1 | Cc1nc(C(F)(F)F)cn1-c1c(Cl)cc(-c2cccc(S(C)(=O)=O)c2)cc1-n1nncc1-c1ccc(OC(F)(F)F)cc1 [Example 195, 1-{5-chloro-3′-(methylsulfonyl)-4-[2-methyl-4-(trifluoromethyl)-1H-imidazol-1-yl]biphenyl-3-yl}-5-{4-[(trifluoromethyl)oxy]phenyl}-1H-1,2,3-triazole] | 0.574 | 83
2 | Cc1nc(-c2cc(-c3cccc(S(C)(=O)=O)c3)ccc2-n2cc(C(F)(F)F)nc2C)c(-c2ccc(OC3CCCCC3)nc2)o1 [Example 408, 5-(6-(cyclohexyloxy)pyridin-3-yl)-2-methyl-4-(4-(2-methyl-4-(trifluoromethyl)-1H-imidazol-1-yl)-3′-(methylsulfonyl)biphenyl-3-yl)oxazole] | 0.332 | 55
3 | COc1ccc(-c2cnnn2-c2cc(-c3cccc(S(C)(=O)=O)c3)ccc2-n2cc(C(F)(F)F)nc2C)c(C)c1 [Example 24, 5-[2-methyl-4-(methyloxy)phenyl]-1-{3′-(methylsulfonyl)-4-[2-methyl-4-(trifluoromethyl)-1H-imidazol-1-yl]biphenyl-3-yl}-1H-1,2,3-triazole] | 0.512 | 90
4 | Cc1nc(-c2cc(-c3cc(F)c(CO)c(S(C)(=O)=O)c3)ccc2-n2cc(C(C)(C)O)nc2C)c(-c2ccc3c(c2)OC(F)(F)O3)o1 [Example 370, 2-(1-(3-(5-(2,2-difluorobenzo[d][1,3]dioxol-5-yl)-2-methyloxazol-4-yl)-3′-fluoro-4′-(hydroxymethyl)-5′-(methylsulfonyl)biphenyl-4-yl)-2-methyl-1H-imidazol-4-yl)propan-2-ol] | 1.04 | 26
5 | CS(=O)(=O)c1cccc(-c2cc(F)c(-n3cnc(C(F)(F)F)c3)c(-n3nncc3-c3ccc(Cl)cc3)c2)c1 [Example 187, 5-(4-chlorophenyl)-1-{5-fluoro-3′-(methylsulfonyl)-4-[4-(trifluoromethyl)-1H-imidazol-1-yl]biphenyl-3-yl}-1H-1,2,3-triazole] | 0.518 | 92
6 | COc1ncc(F)cc1-c1oc(C)nc1-c1cc(-c2cc(F)c(CO)c(S(C)(=O)=O)c2)ccc1-n1cc(C(F)(F)F)nc1C [Example 401, (3-fluoro-3′-(5-(5-fluoro-2-methoxypyridin-3-yl)-2-methyloxazol-4-yl)-4′-(2-methyl-4-(trifluoromethyl)-1H-imidazol-1-yl)-5-(methylsulfonyl)biphenyl-4-yl)methanol] | 0.272 | 60
7 | Cc1nc(C(F)F)c(Cl)n1-c1ccc(-c2cc(F)c(CO)c(S(C)(=O)=O)c2)cc1-n1nncc1-c1ccc(OC(F)(F)F)cc1 [Example 173, {4′-[5-chloro-4-(difluoromethyl)-2-methyl-1H-imidazol-1-yl]-3-fluoro-5-(methylsulfonyl)-3′-(5-{4-[(trifluoromethyl)oxy]phenyl}-1H-1,2,3-triazol-1-yl)biphenyl-4-yl}methanol] | 0.264 | 148
8 | Cc1nc(-c2cc(-c3cccc(S(C)(=O)=O)c3)ccc2-n2cc(C(F)(F)F)nc2C)c(-c2ccc3c(c2)C(O)C(F)(F)O3)o1 (centres unmarked) [Example 368, 2,2-difluoro-5-(2-methyl-4-(4-(2-methyl-4-(trifluoromethyl)-1H-imidazol-1-yl)-3′-(methylsulfonyl)biphenyl-3-yl)oxazol-5-yl)-2,3-dihydrobenzofuran-3-ol] | 0.465 | 77
9 | Cc1nc(C(F)(F)F)cn1-c1ccc(-c2cccc(S(C)(=O)=O)c2)cc1-n1nncc1-c1ccc2c(c1)OC(F)(F)O2 [Example 73, 5-(2,2-difluoro-1,3-benzodioxol-5-yl)-1-{3′-(methylsulfonyl)-4-[2-methyl-4-(trifluoromethyl)-1H-imidazol-1-yl]biphenyl-3-yl}-1H-1,2,3-triazole] | 0.476 | 99
10 | Cc1nc(C(F)(F)F)cn1-c1cc(F)c(-c2cccc(S(C)(=O)=O)c2)cc1-n1nncc1-c1ccc(Cl)cc1Cl [Example 101, 5-(2,4-dichlorophenyl)-1-{6-fluoro-3′-(methylsulfonyl)-4-[2-methyl-4-(trifluoromethyl)-1H-imidazol-1-yl]biphenyl-3-yl}-1H-1,2,3-triazole] | 0.782 | 73
11 | CCS(=O)(=O)c1cccc(-c2ccc(-n3cc(C(F)(F)F)nc3C)c(-n3nncc3C(F)(F)c3ccc(Cl)cc3)c2)c1 [Example 142, 5-[(4-chlorophenyl)(difluoro)methyl]-1-{3′-(ethylsulfonyl)-4-[2-methyl-4-(trifluoromethyl)-1H-imidazol-1-yl]biphenyl-3-yl}-1H-1,2,3-triazole] | 0.205 | 63

Next, values leading:

Row | EC50 [µM] | Emax [%] | Compound
12 | 0.126 | 61 | Cc1cc(-c2oc(C)nc2-c2cc(-c3cccc(S(C)(=O)=O)c3)ccc2-n2cc(C(F)(F)F)nc2C)cc(Cl)n1 [Example 451, 5-(2-chloro-6-methylpyridin-4-yl)-2-methyl-4-(4-(2-methyl-4-(trifluoromethyl)-1H-imidazol-1-yl)-3′-(methylsulfonyl)biphenyl-3-yl)oxazole]
13 | 0.046 | 92 | Cc1nc(-c2ccc(OC(F)(F)F)cc2)c(-c2cc(-c3ccc(CO)c(S(C)(=O)=O)c3)ccc2-n2cc(C(F)(F)F)nc2C)o1 [Example 607, (3′-(2-methyl-4-(4-(trifluoromethoxy)phenyl)oxazol-5-yl)-4′-(2-methyl-4-(trifluoromethyl)-1H-imidazol-1-yl)-3-(methylsulfonyl)-[1,1′-biphenyl]-4-yl)methanol]
14 | 0.201 | 83 | CCS(=O)(=O)c1cccc(-c2ccc(-n3cc(C(F)(F)F)nc3C)c(-n3nncc3C(C)c3ccc(C)cc3)c2)c1 (centres unmarked) [Example 107, 1-{3′-(ethylsulfonyl)-4-[2-methyl-4-(trifluoromethyl)-1H-imidazol-1-yl]biphenyl-3-yl}-5-[1-(4-methylphenyl)ethyl]-1H-1,2,3-triazole]
15 | 0.035 | 41 | Cc1nc(-c2cc(-c3cc(F)c(CO)c(S(C)(=O)=O)c3)ccc2-n2cc(C(F)(F)F)nc2C)c(-c2ccc(OC(F)(F)C(F)F)cc2)o1 [Example 544, (3-fluoro-4′-(2-methyl-4-(trifluoromethyl)-1H-imidazol-1-yl)-3′-(2-methyl-5-(4-(1,1,2,2-tetrafluoroethoxy)phenyl)oxazol-4-yl)-5-(methylsulfonyl)-[1,1′-biphenyl]-4-yl)methanol]
16 | 0.11 | 97 | Cc1nc(C(F)(F)F)cn1-c1c(F)cc(-c2cccc(S(C)(=O)=O)c2)cc1-n1nncc1-c1ccc(Cl)cc1 [Example 204, 5-(4-chlorophenyl)-1-{5-fluoro-3′-(methylsulfonyl)-4-[2-methyl-4-(trifluoromethyl)-1H-imidazol-1-yl]biphenyl-3-yl}-1H-1,2,3-triazole]
17 | 0.049 | 24 | Cc1nc(-c2cc(-c3cc(F)c(CO)c(S(C)(=O)=O)c3)ccc2-n2cc(C(F)(F)F)nc2C)c(-c2cccn(C(C)C)c2=O)o1 [Example 378, 3-(4-(3′-fluoro-4′-(hydroxymethyl)-4-(2-methyl-4-(trifluoromethyl)-1H-imidazol-1-yl)-5′-(methylsulfonyl)biphenyl-3-yl)-2-methyloxazol-5-yl)-1-isopropylpyridin-2(1H)-one]
18 | 0.057 | 87 | Cc1nc(C(F)(F)F)cn1-c1ccc(-c2cc(F)c(CO)c(S(C)(=O)=O)c2)cc1-c1ccnn1-c1ccc2c(c1)OC(F)(F)O2 [Example 294, (3′-(1-(2,2-difluorobenzo[d][1,3]dioxol-5-yl)-1H-pyrazol-5-yl)-3-fluoro-4′-(2-methyl-4-(trifluoromethyl)-1H-imidazol-1-yl)-5-(methylsulfonyl)biphenyl-4-yl)methanol]
19 | 0.073 | 117 | Cc1nc(-c2ccc(OC(F)F)cc2)c(-c2cc(-c3ccc(CO)c(S(C)(=O)=O)c3)ccc2-n2cc(C(F)(F)F)nc2C)o1 [Example 625, (3′-(4-(4-(difluoromethoxy)phenyl)-2-methyloxazol-5-yl)-4′-(2-methyl-4-(trifluoromethyl)-1H-imidazol-1-yl)-3-(methylsulfonyl)-[1,1′-biphenyl]-4-yl)methanol]
